Here are results for six compounds from patent US7939589B2, “Polyhydroxy-diamines as low odor, low VOC multi-functional additives for paints and coatings” (Angus Chemical Company, priority 2009, dated 2011).

Molecules are shown by their SMILES.

A short description of data set [1]: Volatile organic content (VOC) of the neat amine, modified EPA Method 24. It is filed as physicochemical. The settings on record: for VOC / Volatility by the modified EPA Test Method 24: neat amine; for VOC: 1 h at 105-110° C., percent weight loss. How it is done:
Volatile Organic Content (VOC). VOC is measured following EPA Method 24. The amines are weighed in a pan and kept in an oven for 1 h at 105-110° C. The percent weight loss is reported as the VOC, corrected for the water content in the sample which can be measured by Karl Fisher Titration.

A short description of data set [2]: pKa of the neat neutralizer by titration with hydrochloric acid. The format is physicochemical. The settings on record: neat amine; for pKa: titration; for pK1: first pKa by titration; for pK2: second pKa by titration. How it is done: pKa. pKa is measured by titration with a hydrochloric acid titrant solution, using an automated titrator that monitors pH with a combination electrode. The titrator plots pH vs. volume of titrant added, and first determines the titration endpoint(s) of each amine as the volume of titrant added at the inflection point(s) of the curve. The titrator reports the amine pKa value as the pH value at which one-half of the endpoint titrant volume has been delivered, or in the case of multiple endpoints, multiple pKa values are determined using the midpoints between titration endpoints. The inventive amines tested in this example each have two pKa values, due to the two different amine groups in each compound's respective molecular structure.

For the compound `CC(C)(N)CNC(CO)(CO)CO` [2-(2-amino-2-methylpropylamino)-2-(hydroxymethyl)propane-1,3-diol], the VOC contribution in data set [1] turned out to be 3.9%.

The pKa is the negative logarithm of the acid dissociation constant. As to `CCC(N)(CO)CO` [AEPD, 2-Amino-2-ethyl-1,3-propane-diol, reference compound], the pKa in data set [2] was 8.8. For the same compound, the VOC in data set [1] stood at 19%.

In the case of `CC(C)(N)CO` [AMP, 2-Amino-2-methyl-1-propanol, reference compound], in data set [2], the pKa worked out at 9.7. In data set [1], this compound came in with a VOC contribution of 100% and a VOC of 100%.

With `CCCCN(CCO)CCO` [NBDA, N-Butyl-diethanolamine, reference compound], the pKa in data set [2] was found to be 9. In addition, in data set [1], the VOC amounted to 21%.

For `NC1(CNC(CO)(CO)CO)CCCCC1` [TA-ACyHM, 2-((1-aminocyclohexyl)methylamino)-2-(hydroxymethyl)propane-1,3-diol], in data set [2], the pK1 came to 9.7 and the pK2 was determined as 4.5. Moreover, in data set [2] (listed as TA-AcyHM), the pK1 result is recorded as “pK1 9.7” and the pK2 entry is on record as “pK2 4.5”. Besides, in data set [1], the VOC contribution result is recorded as “essentially zero VOC contribution”, the “Volatility by the modified EPA Test Method 24” value was found to be 3.8% and the VOC stood at 3.8%.

For the compound `CC(C)(N)CNC(CO)(CO)CO` [TA-AMP, 2-(2-Amino-2-methylpropylamino)-2-(hydroxymethyl)propane-1,3-diol], in data set [1], the “Volatility by the modified EPA Test Method 24” value is reported as 3.9% and the VOC is 3.9%.
